According to US20090227521A1, “USE OF COMPOUNDS IN THE TREATMENT OF ISCHEMIA AND NEURODEGENERATION” (priority 2006, published 2009):
Where “and” joins values, the source holds several entries; their conditions need not be identical. Identical values can stand only once. *: point of attachment. Cbz = O=C(OCc1ccccc1)*

Tests used:
EL-4 cells [1] = test: Nuclear localization of proteasomes in starved EL-4 cells (immunohistochemistry); type: cell-based, mouse; conditions: starvation, 100 micro-M
Text: (§1) Cells and Culture Conditions. EL-4 is a Benzpyrene-induced lymphoma cell line derived from the C57BI/6 mouse strain. EL-4.wt and EL-4.TPPII^i are EL-4 cells transfected with the pSUPER vector (Brummelkamp, T R, Bernards, R, Agami, R. A system for stable expression of short interfering RNAs in mammalian cells. Science 2002; 296:550-3), empty versus containing the siRNA directed against TPPII. HeLa cells are human cervical carcinoma cells. For induction of stress, cells were starved by growth in 50%-75% Phosphate Buffered Saline (PBS) or gamma-irradiated 250-2000 Rad's; and incubated at 37° C. and 5.3% CO2. Our flow cytometric data represent live cells as determined by flow cytometric gating with Propidium Iodide (PI). For generation of stable transfectants, 5×10^6 cells were washed in PBS, then resuspended into 500 micro-I of PBS in a Bio-Rad gene-pulser and pulsed with 10 micro-g DNA and 250 V at 960 micro-F; and selected by resistance to G418. UbGV76-GFP is a ubiquitin-fusion construct that creates a rapidly degraded GFP molecule for monitoring 26S proteasome activity in live cells through flow cytometry (Dantuma, N. P, Lindsten, K., Glas, R., Jellne, M., and Masucci, M. G. 2000. Short-lived green fluorescent proteins for quantifying ubiquitin/proteasome-dependent proteolysis in living cells. Nat. Biotechnol. 18:538-43). […]

HeLa cells = test: Nuclear localization of proteasomes in starved HeLa cells (immunohistochemistry); type: cell-based, human; conditions: starvation, 100 micro-M
Text: as §1

EL-4.Ub-R-GFP-Q112 cells = test: Ub-R-GFP-Q112 poly-Glutamine reporter substrate degradation in stably transfected EL-4 cells (flow cytometry); type: cell-based, mouse; conditions: for Ub-R-GFP-Q112 substrate level: up to 72 hours, serum-free AIM-V medium
Text: Cells and Culture Conditions. EL-4 is a Benzpyrene-induced lymphoma cell line derived from the C57BI/6 mouse strain. EL-4.wt and EL-4.TPPII^i are EL-4 cells transfected with the pSUPER vector (Brummelkamp, T R, Bernards, R, Agami, R. A system for stable expression of short interfering RNAs in mammalian cells. Science 2002; 296:550-3), empty versus containing the siRNA directed against TPPII. HeLa cells are human cervical carcinoma cells. For induction of stress, cells were starved by growth in 50%-75% Phosphate Buffered Saline (PBS) or gamma-irradiated 250-2000 Rad's; and incubated at 37° C. and 5.3% CO2. Our flow cytometric data represent live cells as determined by flow cytometric gating with Propidium Iodide (PI). For generation of stable transfectants, 5×10^6 cells were washed in PBS, then resuspended into 500 micro-I of PBS in a Bio-Rad gene-pulser and pulsed with 10 micro-g DNA and 250 V at 960 micro-F; and selected by resistance to G418. UbGV76-GFP is a ubiquitin-fusion construct that creates a rapidly degraded GFP molecule for monitoring 26S proteasome activity in live cells through flow cytometry (Dantuma, N. P, Lindsten, K., Glas, R., Jellne, M., and Masucci, M. G. 2000. Short-lived green fluorescent proteins for quantifying ubiquitin/proteasome-dependent proteolysis in living cells. Nat. Biotechnol. 18:538-43). Ub-R-GFP is a similar vector that also encodes a highly unstable GFP molecule degraded through the ubiquitin-proteasome pathway. Ub-R-GFP-Q112 is the same substrate but contains an extended C-terminal with 112 glutamines (Verhoef, L. G., Lindsten, K., Masucci, M. G. and Dantuma, N. P. 2002. Aggregate formation inhibits proteasomal degradation of polyglutamine proteins. Hum Mol. Genet. 11:2689-700).
Flow Cytometry. Fluorescence was quantified by a FACScalibur. Flow cytometric cell sorting of live cells was performed by incubation of cells for 5 minutes with 2 micro-g/ml of Propidium Iodide (PI) and subsequent sorting into PI^+ and PI^− populations with a FACSvantage. […]

EL-4 cells [2] = test: Western blotting of TPPII, proteasome alpha-3 and p53 in stressed EL-4 cells; type: cell-based, mouse
Text: as §1, with “18:538-43). Ub-R-GFP is a similar vector that also encodes a highly unstable GFP molecule degraded through the ubiquitin-proteasome pathway.” for “18:538-43).”
Protein Purification, Peptidase Assays and Analysis of DNA Fragmentation. […] Cleavage activity was measured by emission at 460 nm in a LS50B Luminescence Spectrometer (Perkin Elmer, Boston, Mass.). […]
Antibodies and Antisera. The following molecules were detected by the antibodies specified: GFP by rabbit anti-GFP serum (Molecular Probes Europe, Breda, The Netherlands); 19S proteasomal complexes by anti-Rpt6 (19S base ATPase subunit), 20S proteasomal complexes by (Affinity, Exeter, UK); For detection of TPPII we used chicken anti-TPPII serum (Immunsystem, Uppsala, Sweden). […]

HeLa.UbGV76-GFP cells = test: GFP reporter substrate fluorescence in HeLa.UbGV76-GFP cells (flow cytometry); type: cell-based, human; conditions: live cells, proteasomal inhibitor treatment
Text: as §1
(§2) Flow Cytometry. Fluorescence was quantified by a FACScalibur. […]

EL-4.Ub-R-GFP cells = test: GFP reporter substrate fluorescence in EL-4.Ub-R-GFP cells (flow cytometry); type: cell-based, mouse; conditions: live cells, proteasomal inhibitor treatment
Text: as §1, §2

Subtilisin = conditions: bacterial homologue of eukaryotic TPP II; cited from earlier work
TPP II = biological target: T1, TPP II (Mus musculus, UniProt Q64514); test: Inhibition of cleavage of AAF-AMC by enriched TPP II (peptidase assay); type: biochemical; conditions: for cleavage of AAF-AMC, mean: mean of three
T1 construct: 1 ug of high molecular weight protein was used as enzyme in peptidase assays; endogenous in cells
T1 sequence (Q64514 2-1262 limits assumed): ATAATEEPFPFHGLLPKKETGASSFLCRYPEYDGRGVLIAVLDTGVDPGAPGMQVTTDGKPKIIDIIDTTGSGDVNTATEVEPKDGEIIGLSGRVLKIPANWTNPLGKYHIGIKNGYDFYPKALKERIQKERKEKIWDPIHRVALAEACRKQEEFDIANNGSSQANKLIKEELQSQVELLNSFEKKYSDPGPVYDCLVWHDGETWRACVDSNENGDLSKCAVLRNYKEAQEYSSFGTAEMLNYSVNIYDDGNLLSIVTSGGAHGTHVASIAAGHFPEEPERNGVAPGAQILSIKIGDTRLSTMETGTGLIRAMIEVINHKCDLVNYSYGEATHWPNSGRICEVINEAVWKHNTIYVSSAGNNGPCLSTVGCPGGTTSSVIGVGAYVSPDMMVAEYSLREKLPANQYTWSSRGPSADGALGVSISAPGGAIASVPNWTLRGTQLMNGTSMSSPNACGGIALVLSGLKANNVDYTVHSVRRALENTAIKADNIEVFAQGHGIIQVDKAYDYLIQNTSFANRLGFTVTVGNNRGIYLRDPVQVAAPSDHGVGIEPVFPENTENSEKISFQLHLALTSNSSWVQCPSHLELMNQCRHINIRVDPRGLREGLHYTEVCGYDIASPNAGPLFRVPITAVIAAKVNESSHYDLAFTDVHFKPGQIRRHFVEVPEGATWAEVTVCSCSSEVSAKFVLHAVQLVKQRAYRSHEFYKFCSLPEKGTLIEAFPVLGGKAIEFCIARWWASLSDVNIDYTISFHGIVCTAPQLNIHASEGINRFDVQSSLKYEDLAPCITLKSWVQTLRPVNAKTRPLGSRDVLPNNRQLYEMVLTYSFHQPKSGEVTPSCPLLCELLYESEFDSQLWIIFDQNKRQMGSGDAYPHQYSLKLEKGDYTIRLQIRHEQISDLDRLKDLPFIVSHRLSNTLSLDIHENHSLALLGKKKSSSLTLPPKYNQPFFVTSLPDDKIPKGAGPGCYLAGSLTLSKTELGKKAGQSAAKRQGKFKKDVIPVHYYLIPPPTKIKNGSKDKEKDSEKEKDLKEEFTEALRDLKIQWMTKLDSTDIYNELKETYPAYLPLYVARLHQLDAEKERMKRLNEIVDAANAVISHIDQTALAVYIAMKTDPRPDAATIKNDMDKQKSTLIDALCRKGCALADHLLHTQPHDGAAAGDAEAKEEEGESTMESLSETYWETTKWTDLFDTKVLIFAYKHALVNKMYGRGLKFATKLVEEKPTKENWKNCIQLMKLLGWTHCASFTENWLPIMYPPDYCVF
Procedure: It is not necessary to achieve a particularly high level of purification, and conventional simple techniques can be used to obtain TPP II of sufficient quality to use in a screening method. In one non-limiting example of purification of TPP II, 100×10^6 cells (such as EL-4 cells) were sedimented and lysed by vortexing in glass beads and homogenisation buffer (50 mM Tris Base pH 7.5, 250 mM Sucrose, 5 mM MgCl2, 1 mM DTT). Cellular lysates were subjected to differential centrifugation; first the cellular homogenate was centrifuged at 14,000 rpm for 15 min, and then the supernatant was transferred to ultra-centrifugation tubes. Next the sample was ultra-centrifugated at 100,000×g for 1 hour, and the supernatant (denoted as cytosol in most biochemical literature) was subjected to 100,000×g centrifugation for 5 hours, which sedimented high molecular weight cytosolic proteins/protein complexes. The resulting pellet dissolved in 50 mM Tris Base pH 7.5, 30% Glycerol, 5 mM MgCl2, and 1 mM DTT, and 1 ug of high molecular weight protein was used as enzyme in peptidase assays.
It is possible to test the activity of TPP II using for example the substrate AAF-AMC (Sigma, St. Louis, Mo.). This may for example be used at 100 uM concentration in 100 ul of test buffer composed of 50 mM Tri Base pH 7.5, 5 mM MgCl2 and 1 mM DTT. It is possible to stop reactions using dilution with 900 ul 1% SDS solution. Cleavage activity may be measured for example by emission at 460 nm in a LS50B Luminescence Spectrometer (Perkin Elmer, Boston, Mass.).
Protein Purification, Peptidase Assays and Analysis of DNA Fragmentation. 100×10^6 cells were sedimented and lysed by vortexing in glass beads and homogenisation buffer (50 mM Tris Base pH 7.5, 250 mM Sucrose, 5 mM MgCl2, 1 mM DTT). Cellular lysates were submitted to differential centrifugation where a supernatant from a 1 hour centrifugation at 100,000×g (cytosol) was submitted to 100,000×g centrifugation for 3-5 hours, which sedimented high molecular weight cytosolic proteins/protein complexes. The resulting pellet dissolved in 50 mM Tris Base pH 7.5, 30% Glycerol, 5 mM MgCl2, and 1 mM DTT, and 1 micro-g of high molecular weight protein was used as enzyme in peptidase assays or in Western blotting for TPP II expression. To test the activity of TPP II we used the substrate AAF-AMC (Sigma, St. Louis, Mo.), at 100 micro-M concentration in 100 micro-I of test buffer composed of 50 mM Tri Base pH 7.5, 5 mM MgCl2 and 1 mM DTT. Cleavage activity was measured by emission at 460 nm in a LS50B Luminescence Spectrometer (Perkin Elmer, Boston, Mass.). For analysis of DNA fragmentation cells were seeded in 12-well plates at 10^6 cells/ml and exposed to 25 micro-M etoposide, a DNA topoisomerase II inhibitor commonly used as an apoptosis-inducing agent, to starvation (50% PBS). Cells were seeded at 10^6 cells/ml in 12-well plates and incubated for the indicated times, usually 18-24 hours. DNA from EL-4 control and adapted cells was purified by standard chloroform extraction, and 2.5 micro-g of DNA was loaded on 1.8% agarose gel for detection of DNA from apoptotic cells.
TPP II protein was enriched, and then a TPP II-preferred fluorogenic substrate AAF-AMC was used. 100×10^6 cells were sedimented and lysed by vortexing in glass beads and homogenisation buffer (50 mM Tris Base pH 7.5, 250 mM Sucrose, 5 mM MgCl2, 1 mM DTT). Cellular lysates were subjected to differential centrifugation; first the cellular homogenate was centrifuged at 14,000 rpm for 15 min, and then the supernatant was transferred to ultra-centrifugation tubes. Next the sample was ultra-centrifugated at 100,000×g for 1 hour, and the supernatant (denoted as cytosol in most biochemical literature) was subjected to 100,000×g centrifugation for 5 hours, which sedimented high molecular weight cytosolic proteins/protein complexes. […]

Compound: CCCCNC(=O)[C@@H]1Cc2ccccc2N1C(=O)[C@@H](N)CC [Butabindide]
- nuclear localization of proteasomes (EL-4 cells [1]): inhibited nuclear localization of proteasomes
- nuclear localization of proteasomes (HeLa cells): inhibited nuclear localization of proteasomes
- Ub-R-GFP-Q112 substrate level (EL-4.Ub-R-GFP-Q112 cells; 100 micro-M): gradual decline
- stabilization of p53 (EL-4 cells [2]; gamma-irradiated (500 Rad) EL-4.wt cells, 100 micro-M from 2 hours before onset): prevent

Compound: CC(C)C[C@@H](/C=C/S(C)(=O)=O)NC(=O)[C@H](CC(C)C)NC(=O)[C@H](CC(C)C)NC(=O)Cc1cc(I)c(O)c([N+](=O)[O-])c1 [NLVS, 4-hydroxy-5-iodo-3-nitrophenylacetyl-Leu-Leu-Leu-vinyl sulphone]
- steady state levels of GFP-fluorescence (HeLa.UbGV76-GFP cells): strong increase
- accumulation of Ub-R-GFP-Q112 substrate not degraded (EL-4.Ub-R-GFP-Q112 cells; treatment with NLVS): further increased accumulation
- rapid TPPII down regulation during wortmannin treatment (EL-4 cells [2]; starved EL-4 cells, with 1 micro-M wortmannin): prevented
- steady state levels of GFP-fluorescence (EL-4.Ub-R-GFP cells): strong increase

Compound: Cbz-Gly-Leu-Ala-OH [Z-GLA-OH]
- inhibition of Subtilisin (Subtilisin): inhibit
- Ub-R-GFP-Q112 substrate level (EL-4.Ub-R-GFP-Q112 cells; 25-microM): gradual decline
- TPPII expression (EL-4 cells [2]; gamma-irradiated (500 Rad) EL-4.wt cells, 25 micro-M): strong reduction
- cleavage of AAF-AMC, single determination (TPP II; compound at 1 nM): 32.54 fluorometric units and 32.61 fluorometric units and 33.41 fluorometric units
- cleavage of AAF-AMC, mean (TPP II; compound at 1 nM): 32.85 fluorometric units
- cleavage of AAF-AMC, single determination (TPP II; compound at 10 nM): 21.74 fluorometric units and 21.93 fluorometric units and 24.44 fluorometric units
- cleavage of AAF-AMC, mean (TPP II; compound at 10 nM): 22.70 fluorometric units
- cleavage of AAF-AMC, single determination (TPP II; compound at 100 nM): 14.43 fluorometric units and 14.26 fluorometric units and 14.37 fluorometric units
- cleavage of AAF-AMC, mean (TPP II; compound at 100 nM): 14.35 fluorometric units
- cleavage of AAF-AMC, single determination (TPP II; compound at 1 uM): 11.43 fluorometric units and 11.9 fluorometric units and 11.46 fluorometric units
- cleavage of AAF-AMC, mean (TPP II; compound at 1 uM): 11.60 fluorometric units
- cleavage of AAF-AMC, single determination (TPP II; compound at 10 uM): 6.47 fluorometric units and 7.66 fluorometric units and 7.49 fluorometric units
- cleavage of AAF-AMC, mean (TPP II; compound at 10 uM): 7.21 fluorometric units
- cleavage of AAF-AMC, single determination (TPP II; compound at 100 uM, arbitrary but relative units, lower = more inhibition): 1.14 fluorometric units and 1.44 fluorometric units and 1.55 fluorometric units
- cleavage of AAF-AMC, mean (TPP II; compound at 100 uM): 1.38 fluorometric units
